Data reported in PubChem BioAssay AID651581 (Sanford-Burnham Center for Chemical Genomics, 2012).
Calls of active or inactive are those of the source. The rule behind the calls is not given here.

Experiments:
[1] = molecular target: Endothelial PAS domain-containing protein 1 (Homo sapiens) (UniProt Q99814); assay: HIF-2a and HIF-1a reporter inhibition panel, dose response, selectivity assay for HIF-2a inhibitor project, cell-based, luminescence (AID 651581)
[2] = molecular target: Hypoxia-inducible factor 1-alpha (Homo sapiens) (UniProt Q16665); assay: as above; conditions: HIF-1a
Chain of Hypoxia-inducible factor 1-alpha (Homo sapiens) (Q16665 whole entry, looked up): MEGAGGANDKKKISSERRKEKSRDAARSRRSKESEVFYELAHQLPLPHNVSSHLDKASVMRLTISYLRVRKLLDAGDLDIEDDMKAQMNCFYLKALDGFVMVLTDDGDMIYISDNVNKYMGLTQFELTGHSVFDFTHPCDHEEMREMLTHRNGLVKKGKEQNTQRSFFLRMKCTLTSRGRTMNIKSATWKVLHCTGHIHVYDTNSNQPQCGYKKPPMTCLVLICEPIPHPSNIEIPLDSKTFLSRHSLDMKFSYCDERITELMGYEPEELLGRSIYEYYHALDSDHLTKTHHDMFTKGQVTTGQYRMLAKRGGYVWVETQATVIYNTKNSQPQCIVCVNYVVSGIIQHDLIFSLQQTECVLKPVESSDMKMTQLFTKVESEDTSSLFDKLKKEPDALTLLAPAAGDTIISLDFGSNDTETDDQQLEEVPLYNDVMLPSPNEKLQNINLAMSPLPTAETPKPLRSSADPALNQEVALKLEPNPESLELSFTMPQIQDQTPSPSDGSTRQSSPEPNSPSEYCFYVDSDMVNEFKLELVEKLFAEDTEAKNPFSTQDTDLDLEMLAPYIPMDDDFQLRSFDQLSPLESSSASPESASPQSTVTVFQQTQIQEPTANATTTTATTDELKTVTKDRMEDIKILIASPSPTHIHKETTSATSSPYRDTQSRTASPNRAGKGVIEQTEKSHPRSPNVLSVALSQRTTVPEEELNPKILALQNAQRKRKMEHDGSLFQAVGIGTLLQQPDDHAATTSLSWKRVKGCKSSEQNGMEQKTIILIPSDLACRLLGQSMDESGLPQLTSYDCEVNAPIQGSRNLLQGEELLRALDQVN

Row | SMILES | IC50 ([1]; HIF-2a PANC, mean of runs) | IC50 ([1]; HIF-2a PANC, run 1) | IC50 ([1]; HIF-2a PANC, run 2) | IC50 ([1]; HIF-2a, mean of runs) | IC50 ([1]; HIF-2a, run 1) | IC50 ([1]; HIF-2a, run 2) | IC50 ([2]; mean of runs) | IC50 ([2]; run 1) | IC50 ([2]; run 2)
1 | CC(=O)Nc1ccc(OC(=O)N2CCCCC2)cc1 | 2.8 µM | 1.96 µM | 3.65 µM | 2.33 µM | 2.32 µM | 2.34 µM | 11.4 µM | 11.5 µM | 11.2 µM
2 | N#Cc1ccccc1COc1ccc(/C=C/C(=O)O)cc1 | 0.92 µM | 1.53 µM | 0.311 µM | 0.391 µM | 0.37 µM | 0.412 µM | 1.34 µM | 1.56 µM | 1.12 µM
3 | CCOC(=O)C1CCN(C(=O)CCc2c(C)nc3cc(-c4ccccc4)nn3c2C)CC1 | 2.16 µM | 1.83 µM | 2.48 µM | 1.39 µM | 1.51 µM | 1.27 µM | 9.79 µM | 12.6 µM | 6.98 µM
4 | C/C(=N\OCc1cccc(C(=O)O)c1)c1ccc(Cl)cc1 | > 99 µM (inactive) | > 99 µM | > 99 µM |  | < 10 µM | 5.87 µM |  | > 99 µM | > 99 µM
5 | COc1ccc(OCc2cccc(C(=O)Nn3cc([N+](=O)[O-])cn3)c2)cc1 |  | < 30 µM | 13.4 µM | inactive | 11.3 µM | 9.04 µM |  | 32.1 µM | < 30 µM
6 | O=C(O)c1cccc(NC(=S)NC(=O)c2ccc3ccccc3c2)c1 |  | < 30 µM | > 99 µM | inactive | 10.9 µM | 9.32 µM |  | > 99 µM | > 99 µM
7 | Nc1ccc(-c2cc3ccccc3c(=O)o2)cc1 | 0.7 µM | 0.782 µM | 0.618 µM | < 1 µM | < 1 µM | < 1 µM |  | 0.423 µM | > 99 µM
8 | CC(=O)Nc1ccc(OS(=O)(=O)c2c(C)cc(C)cc2C)cc1 | > 99 µM (inactive) | > 99 µM | > 99 µM | inactive | 12.5 µM | 10.9 µM | 64.6 µM | 80 µM | 49.2 µM
9 | CCOC(=O)Cc1csc(NC(=S)NC(=O)c2ccccc2)n1 |  | 41 µM | < 10 µM | 3.69 µM | 3.72 µM | 3.66 µM | 22.1 µM | 23.3 µM | 20.9 µM
10 | CCOC(=O)C1CCCN(C(=O)COc2ccc(C(C)(C)C)cc2)CC1 (stereo not given) | 13.5 µM | 16.5 µM | 10.4 µM | 8.24 µM | 8.72 µM | 7.77 µM |  | > 99 µM | > 99 µM
11 | NNC(=O)c1cccc(COc2ccc3c(c2)CCC3)c1 | > 99 µM (inactive) | > 99 µM | > 99 µM | < 30 µM (inactive) | < 30 µM | < 30 µM |  | > 99 µM | > 99 µM
12 | Cc1nn(-c2ccccc2Cl)c(Cl)c1/C=N/Nc1cccc(C(=O)O)c1 | > 99 µM (inactive) | > 99 µM | > 99 µM | inactive | 23.5 µM | 24.2 µM |  | > 99 µM | > 99 µM
13 | O=C(Nc1ccc(Cl)cc1Cl)c1cccc(N2C(=O)C=CC2=O)c1 |  | > 99 µM | 28.1 µM | 8.1 µM | 7.79 µM | 8.42 µM | 41.1 µM | 47.8 µM | 34.5 µM
14 | O=C(Nc1ccc(NC(=O)c2cccs2)cc1)c1ccc2c(c1)OCCO2 | 1.93 µM | 2.06 µM | 1.79 µM |  | 22 µM | > 99 µM | > 99 µM (inactive) | > 99 µM | > 99 µM
15 | N=c1nc(SCCC(=O)O)ss1 | inactive | 30.8 µM | 39.5 µM | 6.38 µM | 6.36 µM | 6.39 µM | inactive | 7.84 µM | 14.4 µM
16 | Cc1ccc(-n2nc3ccc(N)cc3n2)c(C)c1 | inactive | 1.69 µM | 3.51 µM | 0.452 µM | 0.456 µM | 0.448 µM |  | > 99 µM | > 99 µM
17 | Cc1nc(SCCC(=O)O)c2cc(-c3ccccc3)sc2n1 | inactive | 1.02 µM | 1.53 µM | 0.212 µM | 0.196 µM | 0.228 µM |  | > 99 µM | 1.56 µM
18 | CC(C)(C)c1ccc(-c2noc(CCC(=O)NCC3CCCO3)n2)cc1 (stereo not given) | < 3 µM | < 3 µM | < 10 µM | < 10 µM | < 10 µM | < 10 µM |  | > 99 µM | > 99 µM
19 | C/C(=N\NC(=O)c1n[nH]c2c1CCC2)c1cccs1 | inactive | 27.1 µM | 15.3 µM | 4.55 µM | 4.42 µM | 4.68 µM | inactive | 13.7 µM | 11.6 µM
